Assay results published in patent publication US10245261B2, “Substituted indol-5-ol derivatives and their therapeutic applications” (NantBioScience, Inc., priority 2013, dated 2019).

Assays:
Assay in all cases: KinaseProfiler kinase assay
Format in all cases: biochemical
[1] = target: CDK2/cyclinA(h) (Homo sapiens, UniProt P24941)
Outline: (§1)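 Kinase activity is followed by incorporation of 33P from [γ-33P]ATP in 8 mM MOPS pH 7.0 with 10 mM Mg acetate and 0.2 mM EDTA over 40 min at room temperature. Inhibition is scaled between no-kinase and phosphopeptide control wells.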

[2] = target: CDK3/cyclinE(h) (Homo sapiens, UniProt Q00526)
Outline: as §1

[3] = target: CHK2(I157T)(h) (Homo sapiens, UniProt O96017, I157T)
Outline: as §1

[4] = target: CK2α2(h) (Homo sapiens, UniProt P19784)
Outline: as §1

[5] = target: CaMKIIγ(h) (Homo sapiens, UniProt Q13555)
Outline: as §1

[6] = target: CaMKIδ(h) (Homo sapiens, UniProt Q8IU85)
Outline: as §1

[7] = target: DAPK2(h) (Homo sapiens, UniProt Q9UIK4)
Outline: as §1

[8] = target: DCAMKL2(h) (Homo sapiens, UniProt Q8N568)
Outline: as §1

[9] = target: EphA3(h) (Homo sapiens, UniProt P29320)
Outline: as §1

[10] = target: EphA4(h) (Homo sapiens, UniProt P54764)
Outline: as §1

[11] = target: Fer(h) (Homo sapiens, UniProt P16591)
Outline: as §1

[12] = target: IRAK4(h) (Homo sapiens, UniProt Q9NWZ3)
Outline: as §1

[13] = target: Lck(h) activated (Homo sapiens, UniProt P06239)
Outline: as §1

[14] = target: MAPK2(h) (Homo sapiens, UniProt P28482)
Outline: as §1

[15] = target: MAPKAP-K2(h) (Homo sapiens, UniProt P49137)
Outline: as §1

[16] = target: MARK1(h) (Homo sapiens, UniProt Q9P0L2)
Outline: as §1

[17] = target: MST1(h) (Homo sapiens, UniProt Q13043)
Outline: as §1

[18] = target: PDGFRα(h) (Homo sapiens, UniProt P16234)
Outline: as §1

[19] = target: PI3 Kinase (p110α(E545K)/p85α)(h) (Homo sapiens, UniProt P42336, E545K)
Outline: as §1

[20] = target: PI3 Kinase (p113α)(H1047R)/p85α)(m) (Mus musculus, UniProt P42337, H1047R)
Outline: as §1

[21] = target: PKBγ(h) (Homo sapiens, UniProt Q9Y243)
Outline: as §1

[22] = target: PKCα(h) (Homo sapiens, UniProt P17252)
Outline: as §1

[23] = target: SGK(h) (Homo sapiens, UniProt O00141)
Outline: as §1

[24] = target: SGK2(h) (Homo sapiens, UniProt Q9HBY8)
Outline: as §1

[25] = target: SRPK1(h) (Homo sapiens, UniProt Q96SB4)
Outline: as §1

[26] = target: TBK1(h) (Homo sapiens, UniProt Q9UHD2)
Outline: as §1

[27] = target: TLK2(h) (Homo sapiens, UniProt Q86UE8)
Outline: as §1

[28] = target: Tie2(Y897S)(h) (Homo sapiens, UniProt Q02763, Y897S)
Outline: as §1

[29] = target: ULK3(h) (Homo sapiens, UniProt Q6PHR2)
Outline: as §1

[30] = target: VRK2(h) (Homo sapiens, UniProt Q86Y07)
Outline: as §1

[31] = target: WNK2(h) (Homo sapiens, UniProt Q9Y3S1)
Outline: as §1

Chain of MST1(h) (Q13043 whole entry): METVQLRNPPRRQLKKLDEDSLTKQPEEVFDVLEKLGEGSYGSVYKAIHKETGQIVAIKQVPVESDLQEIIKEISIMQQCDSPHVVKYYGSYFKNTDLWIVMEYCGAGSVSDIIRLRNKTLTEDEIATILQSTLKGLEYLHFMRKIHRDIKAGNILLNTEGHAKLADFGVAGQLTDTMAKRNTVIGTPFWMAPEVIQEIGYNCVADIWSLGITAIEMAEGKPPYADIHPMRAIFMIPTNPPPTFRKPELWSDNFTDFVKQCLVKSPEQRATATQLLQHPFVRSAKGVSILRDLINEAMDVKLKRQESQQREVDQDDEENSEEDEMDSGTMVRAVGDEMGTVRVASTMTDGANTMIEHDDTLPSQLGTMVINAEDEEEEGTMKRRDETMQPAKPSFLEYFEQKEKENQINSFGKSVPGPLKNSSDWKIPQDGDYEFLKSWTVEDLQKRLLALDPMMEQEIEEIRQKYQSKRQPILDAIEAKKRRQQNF
Chain of TLK2(h) (Q86UE8 whole entry): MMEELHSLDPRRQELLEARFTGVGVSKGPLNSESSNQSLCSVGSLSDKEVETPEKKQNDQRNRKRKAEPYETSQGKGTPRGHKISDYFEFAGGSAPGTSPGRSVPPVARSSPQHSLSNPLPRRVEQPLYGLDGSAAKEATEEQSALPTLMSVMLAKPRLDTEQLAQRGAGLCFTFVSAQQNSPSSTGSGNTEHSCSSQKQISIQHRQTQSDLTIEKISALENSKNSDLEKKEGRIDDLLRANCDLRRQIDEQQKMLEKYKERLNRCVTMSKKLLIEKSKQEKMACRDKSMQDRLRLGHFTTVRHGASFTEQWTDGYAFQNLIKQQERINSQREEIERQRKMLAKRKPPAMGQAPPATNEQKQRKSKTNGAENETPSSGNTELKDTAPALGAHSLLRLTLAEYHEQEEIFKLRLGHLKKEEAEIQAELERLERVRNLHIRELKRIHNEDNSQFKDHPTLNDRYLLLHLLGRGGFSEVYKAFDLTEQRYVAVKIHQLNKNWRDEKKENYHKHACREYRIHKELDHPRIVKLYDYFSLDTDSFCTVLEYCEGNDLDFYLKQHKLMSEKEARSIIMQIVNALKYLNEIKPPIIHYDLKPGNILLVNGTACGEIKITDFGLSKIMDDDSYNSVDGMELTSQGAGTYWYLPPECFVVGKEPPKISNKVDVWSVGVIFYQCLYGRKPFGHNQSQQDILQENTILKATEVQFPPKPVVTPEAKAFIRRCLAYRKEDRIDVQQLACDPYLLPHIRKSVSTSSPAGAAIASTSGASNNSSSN
Chain of MAPK2(h) (P28482 whole entry): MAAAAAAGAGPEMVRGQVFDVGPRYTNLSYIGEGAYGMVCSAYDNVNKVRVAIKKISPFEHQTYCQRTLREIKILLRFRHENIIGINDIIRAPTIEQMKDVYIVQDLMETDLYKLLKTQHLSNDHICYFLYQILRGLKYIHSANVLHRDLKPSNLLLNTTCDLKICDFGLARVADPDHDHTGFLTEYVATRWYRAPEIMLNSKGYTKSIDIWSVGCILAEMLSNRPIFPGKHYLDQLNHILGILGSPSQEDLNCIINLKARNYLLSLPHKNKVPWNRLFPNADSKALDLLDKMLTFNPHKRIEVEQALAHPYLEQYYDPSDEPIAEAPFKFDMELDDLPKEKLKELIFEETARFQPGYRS
Chain of DCAMKL2(h) (Q8N568 whole entry): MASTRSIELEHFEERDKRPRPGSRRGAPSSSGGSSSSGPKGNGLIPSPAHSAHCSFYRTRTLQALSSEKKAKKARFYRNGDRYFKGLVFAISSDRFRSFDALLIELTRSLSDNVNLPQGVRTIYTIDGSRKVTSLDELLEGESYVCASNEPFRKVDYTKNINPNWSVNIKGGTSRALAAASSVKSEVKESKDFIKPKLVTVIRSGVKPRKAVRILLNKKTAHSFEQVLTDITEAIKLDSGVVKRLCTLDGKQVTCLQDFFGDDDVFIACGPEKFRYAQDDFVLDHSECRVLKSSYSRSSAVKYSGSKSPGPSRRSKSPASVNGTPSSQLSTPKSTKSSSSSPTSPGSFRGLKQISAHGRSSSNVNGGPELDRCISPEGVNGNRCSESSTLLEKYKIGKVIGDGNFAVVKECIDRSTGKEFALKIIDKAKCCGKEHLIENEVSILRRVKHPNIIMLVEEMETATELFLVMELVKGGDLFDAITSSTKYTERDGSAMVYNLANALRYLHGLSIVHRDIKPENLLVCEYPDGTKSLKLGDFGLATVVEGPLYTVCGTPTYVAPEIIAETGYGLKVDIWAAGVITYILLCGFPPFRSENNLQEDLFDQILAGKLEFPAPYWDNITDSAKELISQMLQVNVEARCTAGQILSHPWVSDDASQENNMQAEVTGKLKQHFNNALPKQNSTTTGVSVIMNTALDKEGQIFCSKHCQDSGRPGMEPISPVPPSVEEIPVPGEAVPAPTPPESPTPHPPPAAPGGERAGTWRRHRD
Chain of CDK3/cyclinE(h) (Q00526 whole entry): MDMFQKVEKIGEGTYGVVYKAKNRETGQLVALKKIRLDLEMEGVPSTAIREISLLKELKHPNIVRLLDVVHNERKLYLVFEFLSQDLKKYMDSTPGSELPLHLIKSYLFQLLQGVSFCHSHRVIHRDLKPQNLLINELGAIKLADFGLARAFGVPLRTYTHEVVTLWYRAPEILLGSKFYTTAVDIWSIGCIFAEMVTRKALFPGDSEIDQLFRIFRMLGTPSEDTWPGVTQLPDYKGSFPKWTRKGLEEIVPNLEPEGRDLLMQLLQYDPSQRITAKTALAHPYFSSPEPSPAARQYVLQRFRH
Chain of CDK3/cyclinE(h) (P24864 whole entry partner): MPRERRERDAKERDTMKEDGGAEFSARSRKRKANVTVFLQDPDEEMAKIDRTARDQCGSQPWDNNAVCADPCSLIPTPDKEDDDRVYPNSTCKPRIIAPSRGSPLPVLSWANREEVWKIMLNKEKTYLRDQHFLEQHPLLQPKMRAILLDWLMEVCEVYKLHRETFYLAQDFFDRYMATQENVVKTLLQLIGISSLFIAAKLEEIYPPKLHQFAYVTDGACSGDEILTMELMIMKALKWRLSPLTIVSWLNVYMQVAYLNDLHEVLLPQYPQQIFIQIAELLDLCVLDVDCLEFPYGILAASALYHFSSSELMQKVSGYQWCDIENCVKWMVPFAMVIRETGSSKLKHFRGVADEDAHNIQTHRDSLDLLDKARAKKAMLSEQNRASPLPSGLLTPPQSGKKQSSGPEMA
Chain of CHK2(I157T)(h) (O96017 whole entry I157T): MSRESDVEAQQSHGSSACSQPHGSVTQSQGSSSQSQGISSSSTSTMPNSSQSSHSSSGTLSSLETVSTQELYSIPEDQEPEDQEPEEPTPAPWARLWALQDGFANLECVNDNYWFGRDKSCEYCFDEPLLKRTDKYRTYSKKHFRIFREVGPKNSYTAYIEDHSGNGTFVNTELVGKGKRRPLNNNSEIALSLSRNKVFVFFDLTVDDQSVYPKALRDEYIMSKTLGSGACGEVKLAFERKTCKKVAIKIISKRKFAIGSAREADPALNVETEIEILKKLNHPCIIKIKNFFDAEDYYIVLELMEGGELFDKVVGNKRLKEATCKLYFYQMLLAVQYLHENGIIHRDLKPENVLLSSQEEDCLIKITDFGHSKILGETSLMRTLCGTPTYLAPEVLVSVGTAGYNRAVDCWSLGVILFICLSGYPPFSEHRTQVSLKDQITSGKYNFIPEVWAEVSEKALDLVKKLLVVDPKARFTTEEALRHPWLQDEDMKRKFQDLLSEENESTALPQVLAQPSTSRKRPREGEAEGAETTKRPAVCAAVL
Chain of DAPK2(h) (Q9UIK4 whole entry): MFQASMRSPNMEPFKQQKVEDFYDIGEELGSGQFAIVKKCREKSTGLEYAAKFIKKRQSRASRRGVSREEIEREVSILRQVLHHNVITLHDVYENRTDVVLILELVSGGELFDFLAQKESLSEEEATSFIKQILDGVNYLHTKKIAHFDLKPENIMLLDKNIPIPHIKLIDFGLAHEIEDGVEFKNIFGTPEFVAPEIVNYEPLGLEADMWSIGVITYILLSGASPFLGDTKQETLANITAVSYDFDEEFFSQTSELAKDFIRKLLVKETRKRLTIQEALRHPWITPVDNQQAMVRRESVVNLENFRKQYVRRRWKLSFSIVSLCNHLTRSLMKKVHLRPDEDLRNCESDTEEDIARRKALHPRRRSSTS

SMILES	inhibition at 0.1 µM [1] [%]	inhibition at 0.1 µM [2] [%]	inhibition at 0.1 µM [3] [%]	inhibition at 0.1 µM [4] [%]	inhibition at 0.1 µM [5] [%]	inhibition at 0.1 µM [6] [%]	inhibition at 0.1 µM [7] [%]	inhibition at 0.1 µM [8] [%]	inhibition at 0.1 µM [9] [%]	inhibition at 0.1 µM [10] [%]	inhibition at 0.1 µM [11] [%]	inhibition at 0.1 µM [12] [%]	inhibition at 0.1 µM [13] [%]	inhibition at 0.1 µM [14] [%]	inhibition at 0.1 µM [15] [%]	inhibition at 0.1 µM [16] [%]	inhibition at 0.1 µM [17] [%]	inhibition at 0.1 µM [18] [%]	inhibition at 0.1 µM [19] [%]	inhibition at 0.1 µM [20] [%]	other results
Cc1cc2c(F)c(Oc3nc(Nc4cc(C5CC5)[nH]n4)cc(N4CCN(C)CC4)n3)ccc2[nH]1 [Compound 10]	5	0	30	-13	-8	6	-16	16	47	52	38	37	97	-8	-7	67	78	-3	-2	-1	inhibition at 0.1 µM [21]: -10%; inhibition at 0.1 µM [22]: 4%; inhibition at 0.1 µM [23]: -38%; inhibition at 0.1 µM [24]: -41%; inhibition at 0.1 µM [25]: -11%; inhibition at 0.1 µM [26]: 71%; inhibition at 0.1 µM [27]: 69%; inhibition at 0.1 µM [28]: 91%; inhibition at 0.1 µM [29]: 86%; inhibition at 0.1 µM [30]: 34%; inhibition at 0.1 µM [31]: -8%
Cc1cc2c(F)c(Oc3nc(Nc4cc(C5CC5)[nH]n4)cc(N4CCNCC4)n3)ccc2[nH]1 [Compound 11, N-(5-cyclopropyl-1H-pyrazol-3-yl)-2-((4-fluoro-2-methyl-1H-indol-5-yl)oxy)-6-(piperazin-1-yl)pyrimidin-4-amine]	3	33	-1	8	22	5	-6	15	56	47	45	13	100	-13	-10	64	74	29	2	0	inhibition at 0.1 µM [21]: -18%; inhibition at 0.1 µM [22]: -3%; inhibition at 0.1 µM [23]: -19%; inhibition at 0.1 µM [24]: -12%; inhibition at 0.1 µM [25]: -14%; inhibition at 0.1 µM [26]: 95%; inhibition at 0.1 µM [27]: 70%; inhibition at 0.1 µM [28]: 93%; inhibition at 0.1 µM [29]: 84%; inhibition at 0.1 µM [30]: 4%; inhibition at 0.1 µM [31]: -6%
